This passage reports IC50 results from patent US11358952B2, “Substituted 4-aminoisoindoline-1,3-dione compounds, compositions thereof, and methods of treatment therewith” (Celgene Corporation, priority 2018, dated 2022).

Where only a bound is given, the exact number is not on record here.

For this assay, the system named is SU-DHL-4 cell line. Briefly: SU-DHL-4 cell proliferation assay (Cell Titer-Glo viability). It counts as cell-based. The conditions noted are these: Homo sapiens; cell viability IC50 activity level, DLBCL cell line SU-DHL-4, 120 hours post-treatment; read-out: SU-DHL-4 Act. Here is the method: SU-DHL-4 Cell Proliferation Assay.
The following is an example of an assay that can be used to determine the anti-proliferative activity of Isoindolinedione Compounds in a DLBCL cell line, for example, the SU-DHL-4 cell line (Deutsche Sammlung von Mikroorganismen and Zellkulturen GmbH [DSMZ]: catalogue number ACC-495) at 120 hours post-treatment. The seeding density for SU-DHL-4 can be optimized to ensure assay linearity in 1536-well plates.
Increasing concentrations of test compounds (0.5 nM to 10 μM) were spotted in a 20-point dilution fashion (unevenly spaced data points) via an acoustic dispenser (EDC ATS-100) into an empty 1536-well plate. The DMSO concentration was kept constant for a final assay concentration of 0.1% DMSO. Prior to testing, SU-DHL-4 cells were grown in RPMI-1640 (Roswell Park Memorial Institute—1640) medium with 10% FBS (fetal bovine serum: HyClone) and expanded in culture flasks to provide sufficient amounts of starting material. Cells were then diluted to 500 cells per well in a 5 μL volume, and added directly to the compound-spotted 1536-well plates. Cells were allowed to grow for 120 hours in 5% CO2 at 37° C. At the time when exposure of cells to compound began (to), initial viable cell number was assessed via Cell Titer-Glo® Luminescent Cell Viability Assay at a 1 vol:2 vol ratio according to manufacturer's instructions (Promega Corporation, Madison, Wis.) by quantifying the level of luminescence generated by adenosine-5′-triphosphate (ATP) present in viable cells. After 120 hours, cell viability of the treated cells was assessed via Cell Titer-Gb® and read for luminescence. All growth inhibition curves were processed and evaluated using Activity Base (IDBS, Alameda, Calif.). Cell viability IC50 values were calculated using a four parameter logistic model (sigmoidal dose-response model): y=(A+((B−A)/(1+((C/x)^D)))) wherein: A=YMin B=YMax C=EC50 D=Hill slope IC50=the concentration of the compound when Y=50% of DMSO control Y=cell viability measured as luminescence unit, and x=concentration of compound.
For orientation: Cellular ATP, detected with luciferase, serves as a proxy for viable cell number.
As for `O=C1CC[C@H](N2C(=O)c3cccc(NCc4ccc(CN5CC(N6CCOCC6)C5)cc4F)c3C2=O)C(=O)N1` [Cpd 208, (S)-2-(2,6-dioxopiperidin-3-yl)-4-(2-fluoro-4-((3-morpholinoazetidin-1-yl)methyl)benzylamino)isoindoline-1,3-dione], the IC50 was less than 200 nM.
In the case of `O=C1CCC(N2C(=O)c3cccc(NCc4ccc(CN5CC6(CCC6)C5)c(F)c4)c3C2=O)C(=O)N1` (stereo not drawn) [Cpd 162, 4-(4-(2-azaspiro[3.3]heptan-2-ylmethyl)-3-fluorobenzylamino)-2-(2,6-dioxopiperidin-3-yl)isoindoline-1,3-dione] it was 200 to 500 nM.
As to `Cc1cc(CNc2cccc3c2C(=O)N(C2CCC(=O)NC2=O)C3=O)ccc1CN1CCN(CC2CC2)CC1` (stereo not drawn) [Cpd 65, 4-(4-((4-(cyclopropylmethyl)piperazin-1-yl)methyl)-3-methylbenzylamino)-2-(2,6-dioxopiperidin-3-yl)isoindoline-1,3-dione], the IC50 was 200 to 500 nM.
With `Cc1cc(CNc2cccc3c2C(=O)N(C2CCC(=O)NC2=O)C3=O)ccc1CN1CC(C(C)C)C1` (stereo not drawn) [Cpd 202, 2-(2,6-dioxopiperidin-3-yl)-4-(4-((3-isopropylazetidin-1-yl)methyl)-3-methylbenzylamino)isoindoline-1,3-dione], the IC50 is less than 200 nM.
The value for `CC1(C)CN(C2CN(Cc3ccc(CNc4cccc5c4C(=O)N(C4CCC(=O)NC4=O)C5=O)c(F)c3)C2)CCO1` (stereo not drawn) [Cpd 245, 4-(4-((3-(2,2-dimethylmorpholino)azetidin-1-yl)methyl)-2-fluorobenzylamino)-2-(2,6-dioxopiperidin-3-yl)isoindoline-1,3-dione] was less than 200 nM; that for `NC(=O)c1ccc(N2CCN(Cc3ccc(CNc4cccc5c4C(=O)N(C4CCC(=O)NC4=O)C5=O)c(F)c3)CC2)cn1` (stereo not drawn) [Cpd 110, 5-(4-(4-((2-(2,6-dioxopiperidin-3-yl)-1,3-dioxoisoindolin-4-ylamino)methyl)-3-fluorobenzyl)piperazin-1-yl)picolinamide] was less than 200 nM.
The value for `CC1(C)CN(C2CN(Cc3ccc(CNc4cccc5c4C(=O)N(C4CCC(=O)NC4=O)C5=O)cc3)C2)CCO1` (stereo not drawn) [Cpd 235, 4-(4-((3-(2,2-dimethylmorpholino)azetidin-1-yl)methyl)benzylamino)-2-(2,6-dioxopiperidin-3-yl)isoindoline-1,3-dione] was 501 to 750 nM; that for `CC(C)(C)C1CN(Cc2ccc(CNc3cccc4c3C(=O)N(C3CCC(=O)NC3=O)C4=O)cc2)C1` (stereo not drawn) [Cpd 114, 4-(4-((3-tert-butylazetidin-1-yl)methyl)benzylamino)-2-(2,6-dioxopiperidin-3-yl)isoindoline-1,3-dione] was less than 200 nM.
As to `Cc1cc(CNc2cccc3c2C(=O)N(C2CCC(=O)NC2=O)C3=O)ccc1CN1CCC(N2CCOCC2)CC1` (stereo not drawn) [Cpd 211, 2-(2,6-dioxopiperidin-3-yl)-4-(3-methyl-4-((4-morpholinopiperidin-1-yl)methyl)benzylamino)isoindoline-1,3-dione], the IC50 lay in the range of 200 to 500 nM.
With `Cc1cc(CNc2cccc3c2C(=O)N(C2CCC(=O)NC2=O)C3=O)ccc1CN1CC2(CCCC2)C1` (stereo not drawn) [Cpd 200, 4-(4-(2-azaspiro[3.4]octan-2-ylmethyl)-3-methylbenzylamino)-2-(2,6-dioxopiperidin-3-yl)isoindoline-1,3-dione], the IC50 is less than 200 nM.
In the case of `NC(=O)c1ccc(N2CCN(Cc3ccc(CNc4cccc5c4C(=O)N([C@H]4CCC(=O)NC4=O)C5=O)cc3)CC2)cn1` [Cpd 58, (S)-5-(4-(4-((2-(2,6-dioxopiperidin-3-yl)-1,3-dioxoisoindolin-4-ylamino)methyl)benzyl)piperazin-1-yl)picolinamide], the IC50 was less than 200 nM.
As for `C[C@@H]1CN(c2ccc(Cl)cc2)CCN1Cc1ccc(CNc2cccc3c2C(=O)N(C2CCC(=O)NC2=O)C3=O)cc1` (stereo partly drawn) [Cpd 33, 4-(4-(((R)-4-(4-chlorophenyl)-2-methylpiperazin-1-yl)methyl)benzylamino)-2-(2,6-dioxopiperidin-3-yl)isoindoline-1,3-dione], the IC50 was in the range of 200 to 500 nM.
For `O=C1CCC(N2C(=O)c3cccc(NCc4ccc(CN5CCC(Oc6ccccn6)CC5)cc4)c3C2=O)C(=O)N1` (stereo not drawn) [Cpd 132, 2-(2,6-dioxopiperidin-3-yl)-4-(4-((4-(pyridin-2-yloxy)piperidin-1-yl)methyl)benzylamino)isoindoline-1,3-dione], the IC50 is 751 to 1000 nM.
For the molecule `Cc1cc(CNc2cccc3c2C(=O)N(C2CCC(=O)NC2=O)C3=O)ccc1CN1CCC2(CCOC2)CC1` (stereo not drawn) [Cpd 233, 4-(4-(2-oxa-8-azaspiro[4.5]decan-8-ylmethyl)-3-methylbenzylamino)-2-(2,6-dioxopiperidin-3-yl)isoindoline-1,3-dione], the IC50 is less than 200 nM.
As for `O=C1CCC(N2C(=O)c3cccc(NCc4ccc(CN5CCC(N6CCOCC6)CC5)cc4)c3C2=O)C(=O)N1` (stereo not drawn) [Cpd 210, 2-(2,6-dioxopiperidin-3-yl)-4-(4-((4-morpholinopiperidin-1-yl)methyl)benzylamino)isoindoline-1,3-dione], the IC50 lay in the range of 200 to 500 nM.
Consider `CCC1(OC)CCN(Cc2ccc(CNc3cccc4c3C(=O)N(C3CCC(=O)NC3=O)C4=O)cc2F)CC1` (stereo not drawn) [Cpd 157, 2-(2,6-dioxopiperidin-3-yl)-4-(4-((4-ethyl-4-methoxypiperidin-1-yl)methyl)-3-fluorobenzylamino)isoindoline-1,3-dione], for which the IC50 was less than 200 nM.
`O=C1CCC(N2C(=O)c3cccc(NCc4ccc(CN5Cc6cccc(C(F)(F)F)c6C5)cc4)c3C2=O)C(=O)N1` (stereo not drawn) [Cpd 164, 2-(2,6-dioxopiperidin-3-yl)-4-(4-((4-(trifluoromethyl)isoindolin-2-yl)methyl)benzylamino)isoindoline-1,3-dione]: the IC50 was in the range of 200 to 500 nM.
The value for `Cc1cc(CNc2cccc3c2C(=O)N(C2CCC(=O)NC2=O)C3=O)ccc1CN1CC(n2cccn2)C1` (stereo not drawn) [Cpd 77, 4-(4-((3-(1H-pyrazol-1-yl)azetidin-1-yl)methyl)-3-methylbenzylamino)-2-(2,6-dioxopiperidin-3-yl)isoindoline-1,3-dione] was 200 to 500 nM; that for `COC1CC2CCC(C1)N2Cc1ccc(CNc2cccc3c2C(=O)N(C2CCC(=O)NC2=O)C3=O)cc1` [Cpd 35, 2-(2,6-dioxopiperidin-3-yl)-4-(4-(((1R,3r,5S)-3-methoxy-8-azabicyclo[3.2.1]octan-8-yl)methyl)benzylamino)isoindoline-1,3-dione] was 751 to 1000 nM.
`CC(C)C1CCN(Cc2ccc(CNc3cccc4c3C(=O)N(C3CCC(=O)NC3=O)C4=O)cc2F)CC1` (stereo not drawn) [Cpd 99, 2-(2,6-dioxopiperidin-3-yl)-4-(3-fluoro-4-((4-isopropylpiperidin-1-yl)methyl)benzylamino)isoindoline-1,3-dione]: the IC50 is less than 200 nM.
For `O=C1CCC(N2C(=O)c3cccc(NCc4ccc(CN5CCN(c6ncsn6)CC5)cc4)c3C2=O)C(=O)N1` (stereo not drawn) [Cpd 196, 4-(4-((4-(1,2,4,-thiadiazol-3-yl)piperazin-1-yl)methyl)benzylamino)-2-(2,6-dioxopiperidin-3-yl)isoindoline-1,3-dione], the IC50 was less than 200 nM.
Take `O=C1CCC(N2C(=O)c3cccc(NCc4ccc(CN5CCC(O)(C6CC6)CC5)cc4)c3C2=O)C(=O)N1` (stereo not drawn) [Cpd 131, 4-(4-((4-cyclopropyl-4-hydroxypiperidin-1-yl)methyl)benzylamino)-2-(2,6-dioxopiperidin-3-yl)isoindoline-1,3-dione]: the IC50 was 200 to 500 nM.
For `CCCOC1CCN(Cc2ccc(CNc3cccc4c3C(=O)N(C3CCC(=O)NC3=O)C4=O)cc2)CC1` (stereo not drawn) [Cpd 124, 2-(2,6-dioxopiperidin-3-yl)-4-(4-((4-propoxypiperidin-1-yl)methyl)benzylamino)isoindoline-1,3-dione], the IC50 lay in the range of 501 to 750 nM.
For `Cc1cc(CNc2cccc3c2C(=O)N(C2CCC(=O)NC2=O)C3=O)ccc1CN1CC(c2ccc(C#N)cc2)C1` (stereo not drawn) [Cpd 51, 4-(1-(4-((2-(2,6-dioxopiperidin-3-yl)-1,3-dioxoisoindolin-4-ylamino)methyl)-2-methylbenzyl)aetidin-3-yl)benzonitrile], the IC50 is less than 200 nM.
Consider `CC(C)(C)C1CCN(Cc2ccc(CNc3cccc4c3C(=O)N(C3CCC(=O)NC3=O)C4=O)cc2)CC1` (stereo not drawn) [Cpd 37, 4-(4-((4-tert-butylpiperidin-1-yl)methyl)benzylamino)-2-(2,6-dioxopiperidin-3-yl)isoindoline-1,3-dione], for which the IC50 is less than 200 nM.
In the case of `Cc1cc(CNc2cccc3c2C(=O)N(C2CCC(=O)NC2=O)C3=O)ccc1CN1CCC(C(C)(C)C)CC1` (stereo not drawn) [Cpd 43, 4-(4-((4-tert-butylpiperidin-1-yl)methyl)-3-methylbenzylamino)-2-(2,6-dioxopiperidin-3-yl)isoindoline-1,3-dione] it was less than 200 nM.
`O=C1CCC(N2C(=O)c3cccc(NCc4ccc(CN5CCC(n6cccn6)CC5)c(F)c4)c3C2=O)C(=O)N1` (stereo not drawn) [Cpd 106, 4-(4-((4-(1H-pyrazol-1-yl)piperidin-1-yl)methyl)-3-fluorobenzylamino)-2-(2,6-dioxopiperidin-3-yl)isoindoline-1,3-dione]: the IC50 is 200 to 500 nM.
